Laboratory results from article PMC9319179, “Heterologous Expression and Characterization of Plant Wax Ester Producing Enzymes” (Metabolites, 2022).

Legend:
[1] = biological target: T1, Arabidopsis At5g55340 WS (Arabidopsis thaliana, UniProt Q9FJ76); experiment: in vivo feeding of expressing yeast, wax esters by TLC and GC-MS; assay type: cell-based; details: S. cerevisiae H1246; 50 uM alcohol with fed fatty acid (13:0 preferred), 20 °C; acyl donor formed in vivo
T1 construct: gene AT5
T1 sequence (Q9FJ76 1-333): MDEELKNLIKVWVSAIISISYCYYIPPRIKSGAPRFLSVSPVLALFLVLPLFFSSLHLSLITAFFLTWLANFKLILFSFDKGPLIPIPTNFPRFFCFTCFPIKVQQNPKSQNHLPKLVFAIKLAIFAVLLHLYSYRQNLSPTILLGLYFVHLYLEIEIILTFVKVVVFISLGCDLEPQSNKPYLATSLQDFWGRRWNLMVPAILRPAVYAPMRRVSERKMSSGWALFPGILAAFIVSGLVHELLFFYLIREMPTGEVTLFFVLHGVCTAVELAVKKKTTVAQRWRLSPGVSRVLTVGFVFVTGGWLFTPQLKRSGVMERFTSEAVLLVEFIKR

[2] = biological target: T2, maize WS (NP_001147171.1) (Zea mays, UniProt B6SLT2); experiment: in vivo feeding of expressing yeast, ethyl/benzyl esters by GC-MS; assay type: cell-based; details: S. cerevisiae H1246; fed fatty acids (14:1 preferred acyl), 20 °C; acyl donor formed in vivo
T2 construct: full-length ORF, C-terminal His6 tag, yeast codon-optimized synthetic ORF, expressed in S. cerevisiae H1246
T2 sequence (B6SLT2 1-345): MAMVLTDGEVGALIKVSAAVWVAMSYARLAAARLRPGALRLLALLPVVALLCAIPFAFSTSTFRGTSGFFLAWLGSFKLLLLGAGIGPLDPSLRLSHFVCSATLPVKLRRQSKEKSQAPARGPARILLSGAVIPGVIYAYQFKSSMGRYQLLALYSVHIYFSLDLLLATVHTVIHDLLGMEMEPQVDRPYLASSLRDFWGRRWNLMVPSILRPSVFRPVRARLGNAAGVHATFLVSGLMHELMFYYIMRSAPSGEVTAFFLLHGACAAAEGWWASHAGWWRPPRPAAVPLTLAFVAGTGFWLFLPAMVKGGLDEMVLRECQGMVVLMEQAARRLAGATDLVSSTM

Structure (SMILES) | in vivo feeding of expressing yeast, wax esters by TLC and GC-MS [1] | in vivo feeding of expressing yeast, ethyl/benzyl esters by GC-MS [2]
CCCCCCCCCCCCCO [C13:0, C13:0 fatty alcohol] | apparent optimum at 13-carbon chain length for both the fatty acid and fatty alcohol | –
CCO [ethanol] | – | ability to assemble esters with ethanol, benzyl alcohol, and phenylethyl alcohol
OCc1ccccc1 [benzyl alcohol] | – | ability to assemble esters with ethanol, benzyl alcohol, and phenylethyl alcohol
